Measured values from EP4610269A1, “UROKINASE PLASMINOGEN ACTIVATOR SURFACE RECEPTOR (UPAR) LIGANDS FOR DIAGNOSTIC OR THERAPEUTIC USE” (3B Pharmaceuticals GmbH, priority 2024, dated 2025).
pIC50: −log10 of the molar value. Like-named read-outs stand apart in the source and are kept apart here. *1 amine or outer side, *2 acyl side, *3 side chain or, on linkers, in order; H or OH if unused. Where a SMILES comes first, the peptide text is derived from it. Bridges are numbered along the chain shown (N, C = ends). [ ]: non-standard residue; d: D form. The star is where a group is joined. DOTA = O=C(O)CN1CCN(CC(=O)O)CCN(CC(=O)*)CCN(CC(=O)O)CC1; Pro(cis-4-F) = O=C(O)[C@@H]1C[C@H](F)CN1; Tyr(3-NH2) = Nc1cc(C[C@H](N)C(=O)O)ccc1O; Ethylenediamine = C(CN[*:2])N[*:1]; Hyp = O=C(O)[C@@H]1C[C@@H](O)CN1; Cit = NC(=O)NCCC[C@H](N)C(=O)O; Butoxycarbonyl = CCCCOC(=O)*; Suc = O=C(CCC(=O)[*:2])[*:1]; Nle = CCCC[C@H](N)C(=O)O; Orn = NCCC[C@H](N)C(=O)O; Nva = CCC[C@H](N)C(=O)O; Pentanoyl = CCCCC(=O)*; Sar = CNCC(=O)O

How the values were obtained:
[1] = target: T1, uPAR-expressing HEC-265 human endometrial adenocarcinoma cells (Homo sapiens, UniProt Q03405); experiment: Competitive FACS binding assay; details: pIC50 category of FACS binding
T1 construct: Cell surface uPAR-expressing HEC-265 human endometrial adenocarcinoma cells; host or cells: HEC-265
Method in brief: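 HEC-265 cells incubated 1 h at 4 °C with 10 nM biotinylated uPAR peptide tracer plus increasing test compound, then stained with APC-streptavidin on ice. Median APC fluorescence by flow cytometry; 4PL fit gives pIC50.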

human uPAR (uPAR-Fc) = target: T2, human uPAR (uPAR-Fc) (Homo sapiens, UniProt Q03405); experiment: Surface plasmon resonance (SPR) assay, single cycle kinetics; format: binding; details: pKD category for uPAR SPR activity assay, uPAR-Fc on Protein A-Chip, 25°C, read-out: pKD CAT (converted)
T2 construct: comprising amino acids Leu23-Arg303 according to UniProt entry Q03405.1; purchased R&D Systems 10378-UK-100
Method in brief: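 uPAR-Fc (Leu23-Arg303 extracellular domains, human IgG1 Fc) captured on Protein A chip to ~2000 RU; single-cycle kinetics at 25°C in HEPES running buffer pH 7.4 with 0.1% DMSO. KD from double-referenced sensorgrams fitted to 1:1 Langmuir model, reported as pKD.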

T1 sequence (Q03405 23-335): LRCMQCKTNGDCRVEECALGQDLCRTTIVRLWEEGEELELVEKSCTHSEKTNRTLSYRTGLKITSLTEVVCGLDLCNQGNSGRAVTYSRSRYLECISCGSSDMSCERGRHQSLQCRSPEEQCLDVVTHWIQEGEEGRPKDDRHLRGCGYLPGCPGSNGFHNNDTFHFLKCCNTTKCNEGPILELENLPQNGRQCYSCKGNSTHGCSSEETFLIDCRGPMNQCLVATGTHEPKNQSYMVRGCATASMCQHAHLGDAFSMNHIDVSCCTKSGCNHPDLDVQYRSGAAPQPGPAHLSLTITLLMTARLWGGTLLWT
T2 sequence (Q03405 23-303): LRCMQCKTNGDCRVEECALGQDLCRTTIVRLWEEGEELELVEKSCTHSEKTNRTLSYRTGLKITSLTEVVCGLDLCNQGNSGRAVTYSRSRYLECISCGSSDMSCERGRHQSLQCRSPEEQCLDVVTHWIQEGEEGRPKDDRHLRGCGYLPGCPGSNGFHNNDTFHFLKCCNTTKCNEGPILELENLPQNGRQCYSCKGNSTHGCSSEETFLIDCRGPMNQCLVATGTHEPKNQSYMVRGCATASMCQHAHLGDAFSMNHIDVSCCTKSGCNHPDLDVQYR

pIC50 [1]	Kd (human uPAR (uPAR-Fc); single cycle kinetics) [nM]	Kd (human uPAR (uPAR-Fc)) [nM]	SMILES
7.50 to 7.90	10 to 100	–	CCCCC(=O)N[C@H]1CSSC[C@@H](C(N)=O)NC(=O)[C@H](CCC)NC(=O)[C@H]([C@@H](C)CC)NC(=O)[C@@H](CCC(=O)O)NC(=O)[C@@H]2CCCN2C(=O)[C@H](Cc2ccccc2)NC(=O)[C@H](Cc2ccc(O)cc2)NC(=O)[C@H](CCC(N)=O)NC(=O)[C@H](CCCNC(=N)N)NC1=O [UPAR-436, Pent-[Cys-Arg-Gln-Tyr-Phe-Pro-glu-Ile-Nva-Cys]-NH2] (Pentanoyl-CRQYFP[dE]I[Nva]C-NH2; disulfide 1-10)
≥ 8.00	< 1.58	–	CCCCC(=O)N[C@H]1CSSC[C@@H](C(N)=O)NC(=O)[C@H](CCC)NC(=O)[C@H]([C@@H](C)CC)NC(=O)[C@@H]2C[C@@H](O)CN2C(=O)[C@@H]2CCCN2C(=O)[C@H](Cc2ccccc2)NC(=O)[C@H](Cc2ccc(O)cc2)NC(=O)[C@H](CCC(N)=O)NC(=O)[C@H](CC(C)C)NC1=O [UPAR-391, Pent-[Cys-Leu-Gln-Tyr-Phe-Pro-Hyp-Ile-Nva-Cys]-NH2] (Pentanoyl-CLQYFP[Hyp]I[Nva]C-NH2; disulfide 1-10)
≥ 8.00	–	< 1.58	CCC[C@H](NC(=O)CCC(=O)O)C(=O)N[C@H]1CSSC[C@@H](C(N)=O)NC(=O)[C@H](CCC)NC(=O)[C@H]([C@@H](C)CC)NC(=O)[C@@H]2C[C@@H](O)CN2C(=O)[C@@H]2CCCN2C(=O)[C@H](Cc2ccccc2)NC(=O)[C@H](Cc2ccc(O)cc2)NC(=O)[C@H](CCCCNC(=O)CN2CCN(CC(=O)O)CCN(CC(=O)O)CCN(CC(=O)O)CC2)NC(=O)[C@H]([C@@H](C)O)NC1=O [UPAR-297, Succinyl-Nva-[Cys-Thr-Lys(DOTA)-Tyr-Phe-Pro-Hyp-Ile-Nva-Cys]-NH2] (Suc-[Nva]CTK(DOTA)YFP[Hyp]I[Nva]C-NH2; disulfide 2-11)
≥ 8.00	–	1.58 to 10	CCCCC(=O)N[C@H]1CSSC[C@@H](C(N)=O)NC(=O)[C@H](CCC)NC(=O)[C@H]([C@@H](C)CC)NC(=O)CN(C)C(=O)[C@@H]2CCCN2C(=O)[C@H](Cc2ccccc2)NC(=O)[C@H](Cc2ccc(O)cc2)NC(=O)[C@H](CCCCNC(=O)CN2CCN(CC(=O)O)CCN(CC(=O)O)CCN(CC(=O)O)CC2)NC(=O)[C@H](CCCNC(N)=O)NC1=O [UPAR-177, Pent-[Cys-Cit-Lys(DOTA)-Tyr-Phe-Pro-Nmg-Ile-Nva-Cys]-NH2] (Pentanoyl-C[Cit]K(DOTA)YFP[Sar]I[Nva]C-NH2; disulfide 1-10)
≥ 8.00	< 1.58	–	CCCCC(=O)N[C@H]1CSSC[C@@H](C(N)=O)NC(=O)[C@H](CCC)NC(=O)[C@H]([C@@H](C)CC)NC(=O)[C@@H]2C[C@@H](O)CN2C(=O)[C@@H]2CCCN2C(=O)[C@H](Cc2ccccc2)NC(=O)[C@H](Cc2ccc(O)cc2)NC(=O)[C@H](CCC(N)=O)NC(=O)[C@H](Cc2ccc(O)cc2)NC1=O [UPAR-454, Pent-[Cys-Tyr-Gln-Tyr-Phe-Pro-Hyp-Ile-Nva-Cys]-NH2] (Pentanoyl-CYQYFP[Hyp]I[Nva]C-NH2; disulfide 1-10)
≥ 8.00	–	< 1.58	CCCC[C@@H]1NC(=O)[C@H](CCCNC(=N)N)NC(=O)[C@@H](NC(=O)[C@H](CC(C)C)NC(=O)[C@@H](CC(=O)O)NC(C)=O)CSSC[C@@H](C(N)=O)NC(=O)[C@H](CC(C)C)NC(=O)[C@H]([C@@H](C)CC)NC(=O)[C@H](C)NC(=O)[C@@H]2CCCN2C(=O)[C@H](Cc2ccccc2)NC(=O)[C@H](Cc2ccc(O)cc2)NC1=O [UPAR-133, Ac-asp-Leu-[Cys-Arg-Nle-Tyr-Phe-Pro-Ala-Ile-Leu-Cys]-NH2] (Ac-[dD]LCR[Nle]YFPAILC-NH2; disulfide 3-12)
7.50 to 7.90	1.58 to 10	–	CCCCC(=O)N[C@H]1CSSC[C@@H](C(=O)NCCN)NC(=O)[C@H](CCC)NC(=O)[C@H]([C@@H](C)CC)NC(=O)[C@@H]2C[C@@H](O)CN2C(=O)[C@@H]2CCCN2C(=O)[C@H](Cc2ccccc2)NC(=O)[C@H](Cc2ccc(O)cc2)NC(=O)[C@H](CCC(N)=O)NC(=O)[C@H](CCCNC(N)=O)NC1=O [UPAR-430, Pent-[Cys-Cit-Gln-Tyr-Phe-Pro-Hyp-Ile-Nva-Cys]-en] (Pentanoyl-C[Cit]QYFP[Hyp]I[Nva]C-Ethylenediamine; disulfide 1-10)

SMILES	pIC50 [1]	Kd (human uPAR (uPAR-Fc); single cycle kinetics) [nM]	Kd (human uPAR (uPAR-Fc)) [nM]
CCCCOC(=O)N[C@H]1CSSC[C@@H](C(N)=O)NC(=O)[C@H](CCC)NC(=O)[C@H]([C@@H](C)CC)NC(=O)[C@@H]2C[C@@H](O)CN2C(=O)[C@@H]2C[C@H](F)CN2C(=O)[C@H](Cc2ccccc2)NC(=O)[C@H](Cc2ccc(O)c(N)c2)NC(=O)[C@H](CCCNC(=O)CN2CCN(CC(=O)O)CCN(CC(=O)O)CCN(CC(=O)O)CC2)NC(=O)[C@H]([C@@H](C)O)NC1=O [UPAR-234, Butoc-[Cys-Thr-Orn(DOTA)-Ay3-Phe-4Cfp-Hyp-Ile-Nva-Cys]-NHz] (Butoxycarbonyl-CT[Orn](DOTA)[Tyr(3-NH2)]F[Pro(cis-4-F)][Hyp]I[Nva]C-NH2; disulfide 1-10)	≥ 8.00	–	< 1.58
